Active and inactive are the calls of the source.
Assays:
[1] = target: STE20-like serine/threonine-protein kinase (Homo sapiens, UniProt Q9H2G2)
[2] = target: Obg-like ATPase 1 (Homo sapiens, UniProt Q9NTK5)
[3] = target: T1, Mitogen-activated protein kinase kinase kinase kinase 2 (Homo sapiens, UniProt Q12851)
T1 sequence (Q12851 whole entry): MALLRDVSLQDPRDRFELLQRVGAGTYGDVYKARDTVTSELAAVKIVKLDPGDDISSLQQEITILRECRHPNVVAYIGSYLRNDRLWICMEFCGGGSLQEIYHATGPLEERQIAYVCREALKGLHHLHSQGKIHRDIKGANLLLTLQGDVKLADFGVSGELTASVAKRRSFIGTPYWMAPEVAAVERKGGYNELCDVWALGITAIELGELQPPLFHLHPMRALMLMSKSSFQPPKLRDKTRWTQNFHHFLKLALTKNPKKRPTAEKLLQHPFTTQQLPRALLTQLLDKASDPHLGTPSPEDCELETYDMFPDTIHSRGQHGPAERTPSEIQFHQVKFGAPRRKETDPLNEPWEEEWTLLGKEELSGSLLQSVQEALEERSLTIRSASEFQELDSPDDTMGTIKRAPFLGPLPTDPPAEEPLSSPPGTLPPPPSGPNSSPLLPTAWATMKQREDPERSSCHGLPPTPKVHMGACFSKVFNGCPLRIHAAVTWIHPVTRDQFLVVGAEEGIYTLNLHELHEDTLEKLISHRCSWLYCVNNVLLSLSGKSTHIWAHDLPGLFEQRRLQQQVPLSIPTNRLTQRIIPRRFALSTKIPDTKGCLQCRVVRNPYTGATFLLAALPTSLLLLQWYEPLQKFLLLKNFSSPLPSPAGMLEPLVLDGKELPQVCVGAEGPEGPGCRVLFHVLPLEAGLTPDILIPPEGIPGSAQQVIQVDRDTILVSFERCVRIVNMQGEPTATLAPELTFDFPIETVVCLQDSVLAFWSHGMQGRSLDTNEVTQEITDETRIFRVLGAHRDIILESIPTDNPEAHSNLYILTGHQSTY

[4] = target: Cyclin-dependent kinase 6 (Homo sapiens, UniProt Q00534)
[5] = target: T2, Succinate--CoA ligase [ADP-forming] subunit beta, mitochondrial (Homo sapiens, UniProt Q9P2R7)
T2 sequence (Q9P2R7 whole entry): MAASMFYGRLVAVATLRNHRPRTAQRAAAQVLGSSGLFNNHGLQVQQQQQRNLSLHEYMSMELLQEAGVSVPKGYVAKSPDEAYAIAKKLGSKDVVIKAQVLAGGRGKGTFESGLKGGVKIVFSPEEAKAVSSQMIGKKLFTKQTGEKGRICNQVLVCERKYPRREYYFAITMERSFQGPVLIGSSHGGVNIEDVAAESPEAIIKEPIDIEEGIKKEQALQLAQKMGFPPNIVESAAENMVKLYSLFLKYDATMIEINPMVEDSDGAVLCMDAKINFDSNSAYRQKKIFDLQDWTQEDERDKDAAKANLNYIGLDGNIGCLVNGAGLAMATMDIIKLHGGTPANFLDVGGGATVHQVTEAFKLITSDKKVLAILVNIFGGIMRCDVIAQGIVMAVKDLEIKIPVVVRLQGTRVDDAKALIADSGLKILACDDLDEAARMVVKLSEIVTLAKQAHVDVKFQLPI

[6] = target: T3, Rab-like protein 3 (Homo sapiens, UniProt Q5HYI8)
T3 sequence (Q5HYI8 whole entry): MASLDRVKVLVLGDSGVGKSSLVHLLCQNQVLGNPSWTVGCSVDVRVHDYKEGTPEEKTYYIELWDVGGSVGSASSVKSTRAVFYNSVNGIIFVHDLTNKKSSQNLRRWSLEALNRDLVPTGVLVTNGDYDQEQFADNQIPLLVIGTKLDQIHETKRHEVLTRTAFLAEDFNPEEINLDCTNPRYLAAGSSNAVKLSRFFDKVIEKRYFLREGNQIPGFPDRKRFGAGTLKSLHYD

[7] = target: T4, Serine/threonine-protein kinase Nek1 (Homo sapiens, UniProt Q96PY6)
T4 sequence (Q96PY6 whole entry): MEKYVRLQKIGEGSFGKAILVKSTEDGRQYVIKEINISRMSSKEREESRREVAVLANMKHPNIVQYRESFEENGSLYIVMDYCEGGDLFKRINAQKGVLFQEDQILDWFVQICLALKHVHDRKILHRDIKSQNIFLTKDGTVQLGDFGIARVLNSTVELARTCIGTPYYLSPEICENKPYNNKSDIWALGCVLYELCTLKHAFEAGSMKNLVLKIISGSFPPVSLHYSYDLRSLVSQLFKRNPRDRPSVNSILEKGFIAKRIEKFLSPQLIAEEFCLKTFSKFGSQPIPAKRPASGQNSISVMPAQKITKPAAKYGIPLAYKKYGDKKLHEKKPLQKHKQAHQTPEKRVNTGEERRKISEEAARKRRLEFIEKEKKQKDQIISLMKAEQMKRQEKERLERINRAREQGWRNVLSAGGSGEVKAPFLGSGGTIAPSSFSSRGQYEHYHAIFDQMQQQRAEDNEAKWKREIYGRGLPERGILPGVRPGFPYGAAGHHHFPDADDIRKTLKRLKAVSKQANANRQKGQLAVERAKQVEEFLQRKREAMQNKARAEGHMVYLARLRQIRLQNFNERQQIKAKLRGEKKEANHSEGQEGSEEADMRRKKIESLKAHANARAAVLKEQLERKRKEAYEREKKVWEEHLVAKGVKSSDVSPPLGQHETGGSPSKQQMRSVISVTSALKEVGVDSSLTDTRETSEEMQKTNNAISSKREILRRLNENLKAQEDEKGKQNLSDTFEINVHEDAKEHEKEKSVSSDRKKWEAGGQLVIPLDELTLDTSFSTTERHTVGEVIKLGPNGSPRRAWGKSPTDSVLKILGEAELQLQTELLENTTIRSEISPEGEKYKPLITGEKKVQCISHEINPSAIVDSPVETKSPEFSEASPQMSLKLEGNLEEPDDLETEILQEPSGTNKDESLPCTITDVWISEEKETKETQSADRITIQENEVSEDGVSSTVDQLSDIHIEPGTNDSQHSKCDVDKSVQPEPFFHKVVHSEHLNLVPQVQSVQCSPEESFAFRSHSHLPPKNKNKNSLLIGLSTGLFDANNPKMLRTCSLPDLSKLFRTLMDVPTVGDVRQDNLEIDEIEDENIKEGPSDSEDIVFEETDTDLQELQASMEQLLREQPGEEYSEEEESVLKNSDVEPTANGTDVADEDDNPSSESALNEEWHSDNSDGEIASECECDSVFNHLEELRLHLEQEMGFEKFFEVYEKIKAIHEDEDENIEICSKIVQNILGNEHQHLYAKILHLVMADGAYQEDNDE

[8] = target: Serine/threonine-protein kinase/endoribonuclease IRE1 (Homo sapiens, UniProt O75460)
Also: in the data inactive means no Kd found up to 30 µM.

Sequence of Cyclin-dependent kinase 6 (Q00534 whole entry): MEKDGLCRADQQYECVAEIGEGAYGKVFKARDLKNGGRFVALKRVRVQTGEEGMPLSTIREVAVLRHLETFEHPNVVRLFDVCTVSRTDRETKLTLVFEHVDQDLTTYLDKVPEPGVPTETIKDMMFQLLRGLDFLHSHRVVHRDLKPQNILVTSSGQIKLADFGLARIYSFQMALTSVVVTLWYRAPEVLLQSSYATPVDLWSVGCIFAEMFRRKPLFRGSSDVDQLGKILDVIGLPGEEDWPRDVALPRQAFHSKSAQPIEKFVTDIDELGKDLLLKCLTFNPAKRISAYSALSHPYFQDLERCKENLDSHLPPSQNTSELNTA
Sequence of Obg-like ATPase 1 (Q9NTK5 whole entry, looked up): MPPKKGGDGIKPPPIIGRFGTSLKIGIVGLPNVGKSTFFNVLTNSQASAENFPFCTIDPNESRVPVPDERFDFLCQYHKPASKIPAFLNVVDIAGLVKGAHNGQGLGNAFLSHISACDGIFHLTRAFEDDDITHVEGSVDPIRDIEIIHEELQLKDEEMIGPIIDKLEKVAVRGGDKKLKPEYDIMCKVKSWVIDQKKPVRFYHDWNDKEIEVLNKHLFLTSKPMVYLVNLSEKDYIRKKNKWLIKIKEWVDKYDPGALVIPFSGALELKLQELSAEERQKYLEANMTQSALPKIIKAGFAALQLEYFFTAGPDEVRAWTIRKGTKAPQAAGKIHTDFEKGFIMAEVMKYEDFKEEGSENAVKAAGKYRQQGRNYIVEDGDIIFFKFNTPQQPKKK
Sequence of STE20-like serine/threonine-protein kinase (Q9H2G2 whole entry): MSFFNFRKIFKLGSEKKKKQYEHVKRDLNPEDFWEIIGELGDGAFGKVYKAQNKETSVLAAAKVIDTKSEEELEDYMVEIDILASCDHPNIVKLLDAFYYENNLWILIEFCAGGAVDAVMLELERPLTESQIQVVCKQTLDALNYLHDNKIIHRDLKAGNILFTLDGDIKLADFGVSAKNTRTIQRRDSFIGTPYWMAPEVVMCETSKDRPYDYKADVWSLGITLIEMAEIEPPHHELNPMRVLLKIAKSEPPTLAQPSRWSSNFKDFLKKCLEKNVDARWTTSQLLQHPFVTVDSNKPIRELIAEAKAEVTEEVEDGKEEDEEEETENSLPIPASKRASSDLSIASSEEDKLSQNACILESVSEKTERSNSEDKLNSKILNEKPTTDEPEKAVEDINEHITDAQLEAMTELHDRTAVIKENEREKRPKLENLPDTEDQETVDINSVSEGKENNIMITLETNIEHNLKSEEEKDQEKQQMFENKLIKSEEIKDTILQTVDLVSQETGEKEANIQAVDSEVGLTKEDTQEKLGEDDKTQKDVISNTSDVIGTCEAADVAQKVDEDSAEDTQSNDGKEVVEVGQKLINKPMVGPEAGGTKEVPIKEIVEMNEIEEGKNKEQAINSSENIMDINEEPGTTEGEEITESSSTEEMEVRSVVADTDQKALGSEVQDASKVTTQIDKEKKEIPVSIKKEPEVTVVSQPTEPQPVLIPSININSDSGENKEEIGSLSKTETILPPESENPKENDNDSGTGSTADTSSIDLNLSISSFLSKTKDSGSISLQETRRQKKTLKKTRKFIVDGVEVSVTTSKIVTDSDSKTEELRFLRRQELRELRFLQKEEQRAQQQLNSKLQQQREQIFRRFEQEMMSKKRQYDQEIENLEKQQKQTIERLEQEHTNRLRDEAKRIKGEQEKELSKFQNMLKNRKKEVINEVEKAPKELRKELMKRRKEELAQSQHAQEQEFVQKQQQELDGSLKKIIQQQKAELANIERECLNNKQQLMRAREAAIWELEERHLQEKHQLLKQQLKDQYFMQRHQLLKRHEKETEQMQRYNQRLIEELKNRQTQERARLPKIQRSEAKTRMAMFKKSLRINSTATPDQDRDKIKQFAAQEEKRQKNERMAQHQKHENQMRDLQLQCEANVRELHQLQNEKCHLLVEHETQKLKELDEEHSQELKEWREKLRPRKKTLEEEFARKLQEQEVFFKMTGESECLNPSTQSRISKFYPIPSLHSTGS
Sequence of Serine/threonine-protein kinase/endoribonuclease IRE1 (O75460 whole entry): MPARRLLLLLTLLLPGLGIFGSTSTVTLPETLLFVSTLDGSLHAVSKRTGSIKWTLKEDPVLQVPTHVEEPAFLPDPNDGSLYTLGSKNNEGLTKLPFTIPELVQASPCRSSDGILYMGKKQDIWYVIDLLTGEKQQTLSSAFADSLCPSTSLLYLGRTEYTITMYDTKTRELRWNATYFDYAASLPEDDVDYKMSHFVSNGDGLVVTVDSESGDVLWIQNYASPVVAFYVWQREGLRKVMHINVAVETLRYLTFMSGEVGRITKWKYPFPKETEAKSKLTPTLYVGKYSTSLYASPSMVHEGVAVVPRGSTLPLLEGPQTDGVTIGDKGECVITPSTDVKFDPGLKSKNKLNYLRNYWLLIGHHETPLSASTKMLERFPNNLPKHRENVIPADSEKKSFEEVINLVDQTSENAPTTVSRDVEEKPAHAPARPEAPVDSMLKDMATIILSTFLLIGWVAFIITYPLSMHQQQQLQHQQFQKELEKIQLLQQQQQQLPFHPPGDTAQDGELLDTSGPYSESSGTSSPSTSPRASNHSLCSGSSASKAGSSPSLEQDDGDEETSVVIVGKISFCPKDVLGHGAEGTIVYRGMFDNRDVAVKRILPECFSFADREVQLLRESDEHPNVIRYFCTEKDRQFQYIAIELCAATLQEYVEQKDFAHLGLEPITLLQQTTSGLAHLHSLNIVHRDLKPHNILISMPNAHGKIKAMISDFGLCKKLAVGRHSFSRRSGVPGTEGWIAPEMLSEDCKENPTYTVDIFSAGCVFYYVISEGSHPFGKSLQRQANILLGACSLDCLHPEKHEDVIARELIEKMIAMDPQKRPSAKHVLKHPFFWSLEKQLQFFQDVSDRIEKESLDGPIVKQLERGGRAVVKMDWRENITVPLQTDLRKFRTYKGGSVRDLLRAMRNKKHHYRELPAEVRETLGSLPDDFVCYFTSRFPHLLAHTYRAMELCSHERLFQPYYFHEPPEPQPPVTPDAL

| SMILES | Kd [1] | Kd [2] | Kd [3] | Kd [4] | Kd [5] | Kd [6] | Kd [7] | Kd [8] |
| --- | --- | --- | --- | --- | --- | --- | --- | --- |
| Cn1cc(-c2[nH]c3cc(NC(=O)[C@H](N)C4CCCCC4)cc4c3c2C=NNC4=O)cn1 | > 30 µM (inactive) | > 30 µM (inactive) | > 30 µM (inactive) | > 30 µM (inactive) | > 30 µM (inactive) | > 30 µM (inactive) | > 30 µM (inactive) | > 30 µM (inactive) |
| CCc1cc2c(cc1N1CCC(N3CCOCC3)CC1)C(C)(C)c1[nH]c3cc(C#N)ccc3c1C2=O [ALECTINIB] | > 30 µM (inactive) | > 30 µM (inactive) | > 30 µM (inactive) | > 30 µM (inactive) | > 30 µM (inactive) | > 30 µM (inactive) | > 30 µM (inactive) | > 30 µM (inactive) |
| COc1ccc2c(OCc3nnc4ccc(-c5ccccc5)nn34)ccnc2c1 [AMG-208] | > 30 µM (inactive) | > 30 µM (inactive) | > 30 µM (inactive) | > 30 µM (inactive) | > 30 µM (inactive) | > 30 µM (inactive) | > 30 µM (inactive) | > 30 µM (inactive) |
| S=C(NCc1ccc2c(c1)OCO2)N1CCN(c2ncnc3c2oc2ccccc23)CC1 [AMUVATINIB] | > 30 µM (inactive) | > 30 µM (inactive) | > 30 µM (inactive) | > 30 µM (inactive) | > 30 µM (inactive) | > 30 µM (inactive) | > 30 µM (inactive) | > 30 µM (inactive) |
| COc1cc2nccc(Oc3ccc(NC(=O)C4(C(=O)Nc5ccc(F)cc5)CC4)cc3)c2cc1OC [CABOZANTINIB] | > 30 µM (inactive) | > 30 µM (inactive) | > 30 µM (inactive) | > 30 µM (inactive) | > 30 µM (inactive) | > 30 µM (inactive) | > 30 µM (inactive) | > 30 µM (inactive) |
| CC1(COc2ccc3c(c2)ncn3-c2ccc3cccc(N4CCC(N)CC4)c3n2)COC1 [CRENOLANIB] | > 30 µM (inactive) | 0.007 µM | > 30 µM (inactive) | > 30 µM (inactive) | 0.007 µM | > 30 µM (inactive) | > 30 µM (inactive) | > 30 µM (inactive) |
| COc1cc2ncnc(Nc3ccc(F)c(Cl)c3)c2cc1NC(=O)/C=C/CN1CCCCC1 [DACOMITINIB ANHYDROUS] | > 30 µM (inactive) | > 30 µM (inactive) | > 30 µM (inactive) | > 30 µM (inactive) | > 30 µM (inactive) | > 30 µM (inactive) | > 30 µM (inactive) | > 30 µM (inactive) |
| CNC(=O)c1ccc(Nc2ncc(C(F)(F)F)c(NCc3nccnc3N(C)S(C)(=O)=O)n2)cc1 [DEFACTINIB] | 41 µM (active) | > 30 µM (inactive) | > 30 µM (inactive) | – | > 30 µM (inactive) | > 30 µM (inactive) | > 30 µM (inactive) | > 30 µM (inactive) |
| COc1cc(Nc2ncc(F)c(Nc3ccc4c(n3)N(COP(=O)(O)O)C(=O)C(C)(C)O4)n2)cc(OC)c1OC [FOSTAMATINIB] | > 30 µM (inactive) | > 30 µM (inactive) | > 30 µM (inactive) | > 30 µM (inactive) | > 30 µM (inactive) | > 30 µM (inactive) | > 30 µM (inactive) | > 30 µM (inactive) |
| Cc1c(Cn2c(C)nc3c(C(=O)O)cc(N4CCOCC4)cc32)cccc1C(F)(F)F [GSK-2636771] | > 30 µM (inactive) | > 30 µM (inactive) | > 30 µM (inactive) | > 30 µM (inactive) | > 30 µM (inactive) | > 30 µM (inactive) | > 30 µM (inactive) | > 30 µM (inactive) |
| O=S(=O)(c1cccc2c(O)nccc12)N1CCCNCC1 [HYDROXYFASUDIL] | > 30 µM (inactive) | > 30 µM (inactive) | > 30 µM (inactive) | > 30 µM (inactive) | > 30 µM (inactive) | > 30 µM (inactive) | > 30 µM (inactive) | > 30 µM (inactive) |
| C#Cc1cccc(Nc2ncnc3cc4c(cc23)OCCOCCOCCO4)c1 [ICOTINIB] | 1.05 µM (active) | > 30 µM (inactive) | > 30 µM (inactive) | > 30 µM (inactive) | > 30 µM (inactive) | > 30 µM (inactive) | > 30 µM (inactive) | > 30 µM (inactive) |
| COc1cc2ncnc3c2cc1OCCCCCN(C)Cc1ccc(Br)cc1N3 [JNJ-26483327] | > 30 µM (inactive) | > 30 µM (inactive) | > 30 µM (inactive) | > 30 µM (inactive) | > 30 µM (inactive) | > 30 µM (inactive) | > 30 µM (inactive) | > 30 µM (inactive) |
| Cc1ccc(C(=O)Nc2ccc(Oc3cc4cnn(C)c4cc3-c3cn[nH]c3)c(F)c2)c(=O)n1-c1ccc(F)cc1 [MERESTINIB] | > 30 µM (inactive) | > 30 µM (inactive) | > 30 µM (inactive) | > 30 µM (inactive) | > 30 µM (inactive) | > 30 µM (inactive) | > 30 µM (inactive) | > 30 µM (inactive) |
| O=C(NOC[C@H](O)CO)c1ccc(F)c(F)c1Nc1ccc(I)cc1F [MIRDAMETINIB] | > 30 µM (inactive) | > 30 µM (inactive) | > 30 µM (inactive) | > 30 µM (inactive) | – | > 30 µM (inactive) | > 30 µM (inactive) | > 30 µM (inactive) |
| Cc1cc(-c2cc(OC(=O)c3ccccc3)ccc2Cl)cc2nnc(Nc3ccc(OCCN4CCCC4)cc3)nc12 [TG100-801] | > 30 µM (inactive) | > 30 µM (inactive) | > 30 µM (inactive) | > 30 µM (inactive) | – | > 30 µM (inactive) | > 30 µM (inactive) | > 30 µM (inactive) |
